Measurements taken from the supplement of paper PMC10307832.

Assays:
Assay in all cases: relative viability (nuclei count vs DMSO), 5 days (fraction); higher = more cells survive
Seliciclib + Palbociclib = compound: CC[C@H](CO)Nc1nc(NCc2ccccc2)c2ncn(C(C)C)c2n1 [Seliciclib] + CC(=O)c1c(C)c2cnc(Nc3ccc(N4CCNCC4)cn3)nc2n(C2CCCC2)c1=O [Palbociclib] (partner 0.5 µM)
In short: (§1)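 For relative viability, nuclei counts in treated wells were divided by those in vehicle wells. Lung cancer cell lines had been pin-tool dosed in 1536-well plates the day after seeding and cultured for 5 days, then fixed and stained in one step (final 0.05% Triton X-100, 1% formaldehyde, 1 ug/ml Hoechst) and imaged at 4×. Doses were one drug alone or a fixed anchor-drug dose plus five library-drug doses (not always all listed) in √10 steps, and values are duplicate-plate medians.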

Seliciclib + Foretinib = compound: CC[C@H](CO)Nc1nc(NCc2ccccc2)c2ncn(C(C)C)c2n1 [Seliciclib] + COc1cc2c(Oc3ccc(NC(=O)C4(C(=O)Nc5ccc(F)cc5)CC4)cc3F)ccnc2cc1OCCCN1CCOCC1 [Foretinib] (partner 0.25 µM)
In short: as §1

Seliciclib + Bortezomib = compound: CC[C@H](CO)Nc1nc(NCc2ccccc2)c2ncn(C(C)C)c2n1 [Seliciclib] + CC(C)C[C@H](NC(=O)[C@H](Cc1ccccc1)NC(=O)c1cnccn1)B(O)O [Bortezomib] (partner 0.002 µM)
In short: as §1

Seliciclib + Pictilisib = compound: CC[C@H](CO)Nc1nc(NCc2ccccc2)c2ncn(C(C)C)c2n1 [Seliciclib] + CS(=O)(=O)N1CCN(Cc2cc3nc(-c4cccc5[nH]ncc45)nc(N4CCOCC4)c3s2)CC1 [Pictilisib] (partner 1 µM)
In short: as §1

| Cell Line | relative viability (Seliciclib + Palbociclib; first compound 0.08 µM) | relative viability (Seliciclib + Palbociclib; first compound 0.253 µM) | relative viability (Seliciclib + Palbociclib; first compound 0.8 µM) | relative viability (Seliciclib + Palbociclib; first compound 2.53 µM) | relative viability (Seliciclib + Palbociclib; first compound 8 µM) | relative viability (Seliciclib + Foretinib; first compound 0.253 µM) | relative viability (Seliciclib + Foretinib; first compound 0.8 µM) | relative viability (Seliciclib + Foretinib; first compound 2.53 µM) | relative viability (Seliciclib + Foretinib; first compound 8 µM) | relative viability (Seliciclib + Bortezomib; first compound 0.08 µM) | relative viability (Seliciclib + Bortezomib; first compound 0.253 µM) | relative viability (Seliciclib + Bortezomib; first compound 0.8 µM) | relative viability (Seliciclib + Bortezomib; first compound 2.53 µM) | relative viability (Seliciclib + Bortezomib; first compound 8 µM) | relative viability (Seliciclib + Pictilisib; first compound 0.08 µM) | relative viability (Seliciclib + Pictilisib; first compound 0.253 µM) | relative viability (Seliciclib + Pictilisib; first compound 0.8 µM) | relative viability (Seliciclib + Pictilisib; first compound 2.53 µM) | relative viability (Seliciclib + Pictilisib; first compound 8 µM) | relative viability (Seliciclib + Foretinib; first compound 0.08 µM) |
| --- | --- | --- | --- | --- | --- | --- | --- | --- | --- | --- | --- | --- | --- | --- | --- | --- | --- | --- | --- | --- |
| EKVX | 0.365 | 0.305 | 0.311 | 0.16 | 0.204 | 0.887 | 0.533 | 0.756 | 0.77 | 1.03 | 1.07 | 0.985 | 0.854 | 0.861 | 0.42 | 0.5 | 0.417 | 0.423 | 0.305 |  |
| EMC-BAC-2 | 0.516 | 0.474 | 0.543 | 0.423 | 0.455 | 0.94 | 0.955 | 1.02 | 0.909 | 1.05 | 0.91 | 1.11 | 0.836 | 1.07 | 0.505 | 0.526 | 0.497 | 0.392 | 0.51 | 1.02 |
| EPLC-272H | 0.33 | 0.247 | 0.284 | 0.323 | 0.311 | 0.72 | 0.56 | 0.623 | 0.494 | 0.872 | 0.676 | 0.991 | 1.03 | 0.907 | 0.316 | 0.338 | 0.287 | 0.174 | 0.3 | 0.707 |
| H3255 | 0.344 | 0.314 | 0.306 | 0.26 | 0.293 | 1.01 | 0.51 | 0.806 | 0.895 | 0.833 | 0.828 | 0.753 | 0.605 | 0.625 | 0.47 | 0.567 | 0.487 | 0.483 | 0.502 | 0.808 |
| HARA | 0.284 | 0.282 | 0.229 | 0.259 | 0.163 | 1.06 | 0.943 | 0.982 | 0.714 | 1.09 | 1.27 | 1.04 | 1.25 | 1.03 | 0.284 | 0.376 | 0.339 | 0.422 | 0.283 | 0.95 |
| HCC-15 | 0.846 | 0.782 | 0.666 | 0.726 | 0.493 | 1.13 | 0.968 | 0.959 | 0.724 | 1.05 | 1.1 | 0.898 | 0.966 | 0.826 | 0.705 | 0.857 | 0.473 | 0.791 | 0.548 | 1.06 |
| HCC-44 | 0.969 | 1.02 | 0.994 | 0.883 | 0.889 |  |  |  |  | 0.841 | 0.885 | 0.82 | 0.758 | 0.881 | 0.639 | 0.691 | 0.534 | 0.46 | 0.44 |  |
| HCC-78 | 0.504 | 0.438 | 0.514 | 0.395 | 0.382 | 0.574 | 0.445 | 0.41 | 0.457 | 0.532 | 0.471 | 0.433 | 0.373 | 0.396 | 0.203 | 0.274 | 0.187 | 0.174 | 0.181 | 0.535 |
